Reference: US9255088B2, “Premature-termination-codons readthrough compounds” (The Regents of the University of California, priority 2010, dated 2016)

What was measured:
[1] = system: plasmid-TAT51: ATM region 5 fragment with nonsense (PTC) mutation c.5623C→T (TGA C); assay: PTT-ELISA readthrough assay, plasmid-TAT51 (TGA C); details: summary of positive results; plasmid not stated
[2] = system: ATMs1981 autophosphorylation in AT153LA cells (TGA); assay: Flow cytometry ATMs1981 autophosphorylation (FC-ATM) in AT153LA cells; type: cell-based, human; parameters: FC-ATM (Delta-FI, 30 μM): unit not given here; details: for FCATMs1981: summary of positive results; as to FCATMs1981: key: the positive results on various assays are also summarized and labeled as '+'
Description: FC-SMC1 assay was performed as recently described (Nahas et al., 2009). FC-ATM-Ser1981 assay was based on Honda's assay (Honda et al., 2009, Leukemia. 23:409-414) with modifications. In brief, cells were resuspended in PBS and radiated for 10 Gy. After 1 h, the cells were fixed and permeabilized using the FIX & PERM cell permeabilization kit (Invitrogen). The cells were then incubated with 1 μl of mouse ATM-Ser1981 antibody (Cell Signaling Technology) for 2 h at room temperature. Cells were washed and resuspended in 100 μl PBS with Alexa Fluor 488 anti-mouse IgG (Invitrogen) for 45 min. Cells were next washed and resuspended in PBS with 0.2% paraformaldehyde and analyzed using a FACSCalibur (BD).
Studies on readthrough activity of RTC#13 derivatives as measured by FC-ATMS 1981 were performed according to the procedures provided in Example 1.
These two series, 7 and 9, were tested for readthrough activity using an assay in which the ATM protein kinase activity was measured using a flow cytometry-based ATMs1981 autophosphorylation assay (FC-ATM) (Nahas, S. A; et al., Clin. Chem. 2009, 55, 463-72). […] An increased Delta-FI indicates the restoration of ATM kinase activity by a compound.
(§1) These two series, 13 and 15, were again tested for readthrough activity using the assay in which the ATM protein kinase activity was measured by functional flow cytometry (FC-ATM) (Table 4 and FIG. 12). A second assay, irradiation (1R)-induced ATMs1981 nuclear foci formation (IRIF-ATM), was also used to confirm the readthrough activity of these compounds (Table 4 and FIG. 13). Table 3 summarizes the data for the analogues 13 and 15 (at 30 μM), in which the groups R, R′, and X were varied. More detailed data are reported in FIG. 5 (for FC-ATM assay), and in FIG. 6 (for IRIF-ATM assay). […] Thus, the pyrimidinedione unit serves as a good structural replacement for the 2-imino and 2-thioxo thiazolidin-4-one units.

[3] = system: ATM-Ser1981 foci in AT153LA cells (TGA A); assay: Irradiation-induced ATM-Ser1981 foci (IRIF) in AT153LA cells; as to IRIF (ATMs1981): key: the positive results on various assays are also summarized and labeled as '+'; type: cell-based, human; details: for IR-induced ATMs1981 foci formation, readthrough activity: A-T153LA cells (TGA), FIG. 13; for IRIF-ATM (%) (30 μM): Table 4, IR-induced ATMs1981 nuclear foci formation
Description: To evaluate the function of RTC-induced ATM protein, we measured irradiation-induced foci (IRIF) formation of ATM-Ser1981 in the same ATI53LA cells (TGA A). […] The maximum IRIF induction achieved in A-T cells by 10 μM RTC#13 was ˜40% of wild-type level. As a positive readthrough control, 144 μM of G418 (100 μg/ml) was used to treat cells. Our previous studies had shown that, at this concentration, […] induced a maximum level of ATMs1981 IRIF (Lai et al., 2004).
Immunostaining of nuclear foci of ATM-Ser1981 was performed as previously reported (Du et al., 2007). In brief, after being treated with compound for 4 d, cells were irradiated with 2 Gy and incubated at 37° C. for 30 min. The cells were dropped onto coverslips, fixed with 4% paraformaldehyde, and permeabilized. Coverslips were blocked for 1 h and incubated with mouse anti-ATM pSer1981 for 1 h (1:500; Rockland Immunochemicals, Inc). After a second blocking, cells were stained with FITC-conjugated anti-mouse IgG (1:150; Jackson ImmunoResearch Laboratories) for 1 h and mounted onto slides.
Studies on IR-induced ATMs1981 foci formation by RTC#13 and derivatives 13a, 13b, 13d, 13e, 13f, 13g, 13h, 13i, 13j, and 13k in A-T153LA cells (TGA) were performed according to the procedures provided in Example 1.
as §1

[4] = system: dystrophin in mdx myotubes (TAA); assay: Dystrophin expression in mdx myotubes; type: cell-based, mouse; details: FIG. 21
Description: To investigate the ability of RTC#13 and #14 to readthrough a PTC mutation in genes other than ATM, we used mdx myotubes. The mdx mouse has been widely used as a model for Duchenne muscular dystrophy. It carries a C to T transition in exon 23 of the dystrophin gene that creates a premature stop codon (TAA), resulting in an absence of dystrophin protein (Sicinski, et al., 1989, Science. 244:1578-1580). […] Muscle progenitor cells isolated from mdx mice were induced to differentiate for 24 h before addition of gentamicin or compounds RTC#13 and #14. Myotube cultures were exposed to compounds for 72 h and then analyzed for dystrophin by Western blotting. […] We next used immunoprecipitation to increase the sensitivity of the assay (FIG. 8). […] Results were consistent in multiple experiments performed.
Cells were prepared and treated with RTCs for 3 d. Dystrophin proteins were detected by Western blot analysis using immunoprecipitation. Wild-type cells were used in the experiment to localize dystrophin protein. Gentamicin was used as a positive readthrough control. […] Results were consistent in three independent experiments.
Cells were derived from limb muscle of neonatal mdx and C57 mice, as previously described (Bertoni and Rando, 2002, Hum. Gene Ther. 13:707-718). For growth, cells were plated on dishes coated with 5 µg/ml laminin (Invitrogen) and maintained in growth medium consisting of Ham's F10 nutrient mixture (Mediatech, Inc.) supplemented with 20% fetal bovine serum, penicillin, and streptomycin. Cell differentiation was induced by maintaining the cells in low serum medium (differentiation medium) consisting of DME supplemented with 2% horse serum, penicillin, and streptomycin. Myoblasts were plated in wells of 6-well dishes and were allowed to differentiate for 24 h before adding the compounds. Media was replaced every 24 h with fresh differentiation media containing the compounds. Cells were lysed 96 h after induction of differentiation (72 h after addition of the compounds). Total protein was determined and dystrophin immunoblot analysis was performed as previously described (Sicinski et al., 1989). 250 μg of total protein from each sample was immunoprecipitated using a monoclonal antibody directed toward the rod domain (MANDYS—8; 1:40; Sigma-Aldrich) of the dystrophin protein and detected by Western blotting (Barton-Davis et al., 1999, J. Clin. Invest. 104:375-381; Bertoni and Rando, 2002).
Muscle cells were induced to differentiate to allow the formation of myotubes and synthesis of dystrophin mRNA. Compounds were added 24 hrs after induction of differentiation by direct addition into the media. The media was replaced every 24 hrs with fresh differentiation media containing the appropriate concentration of compounds. Myotubes were harvested 72 hrs later (96 hrs after induction of differentiation) and analyzed for dystrophin expression by immunoblot analysis (FIG. 14).
Cultures were analyzed for dystrophin expression by immunohistochemistry.
In the experiments shown in FIG. 21, the activity of two of the analogs of RTC#13 termed RTC#BZ6 and RTC#BZ16 was investigated in myotube cultures isolated from mdx mice. Compounds were added to the differentiation media 24 hrs after induction of differentiation and replaced every 24 hrs by changing the media with new fresh media containing the appropriate concentration of RTC#13, RTC#BZ6 or RTC#BZ16. […] No dystrophin expression was detected in cells treated with vehicle only at a final concentration of 10 μM.

[5] = Table 2, compounds 7, 30 µM, change in fluorescence intensity before and after ionizing radiation
[6] = Table 4, compounds 13 and 15, 30 μM

Compound | PTT-ELISA [1] | FC-ATM (Delta-FI, 30 μM) [2, 5] | FCATMs1981 [2] | FC-ATM (Delta-FI, 30 μM) [2, 6] | IRIF-ATM (%) (30 μM) [3] | also measured
N=C1NC(=O)/C(=C/c2ccc(-c3ccccc3)o2)S1 [Compound 7a, (Z)-2-imino-5-((5-phenylfuran-2-yl)methylene)thiazolidin-4-one] | + | negative |  |  |  | 
O=C1NC(=S)S/C1=C\c1ccc(-c2ccccc2[N+](=O)[O-])o1 [Compound 7b, (Z)-5-((5-(2-nitrophenyl)furan-2-yl)methylene)-2-thioxothiazolidin-4-one] | + | negative |  |  |  | 
N=C1NC(=O)/C(=C/c2ccc(-c3ccccc3C(F)(F)F)o2)S1 [Compound 7d, (Z)-2-imino-5-((5-(2-(trifluoromethyl)phenyl)furan-2-yl)methylene)thiazolidin-4-one] | + | negative |  |  |  | 
COc1ccccc1-c1ccc(/C=C2\SC(=N)NC2=O)o1 [Compound 7e, (Z)-2-imino-5-((5-(2-methoxyphenyl)furan-2-yl)methylene)thiazolidin-4-one] | + | negative |  |  |  | 
N=C1NC(=O)/C(=C/c2ccc(-c3ccccc3Cl)o2)S1 [Compound 7f, (Z)-5-((5-(2-chlorophenyl)furan-2-yl)methylene)-2-iminothiazolidin-4-one] | + | negative |  |  |  | 
N=C1NC(=O)/C(=C/c2ccc(-c3cccc(F)c3)o2)S1 [Compound 7j, (Z)-5-((5-(3-fluorophenyl)furan-2-yl)methylene)-2-iminothiazolidin-4-one] | + | negative |  |  |  | 
O=C1NC(=S)S/C1=C\c1ccc(-c2ccccc2Cl)o1 [Compound 7m, (Z)-5-((5-(2-chlorophenyl)furan-2-yl)methylene)-2-thioxothiazolidin-4-one] | + | 3.55 | + |  |  | FC-ATM readthrough activity [2]: the best of this group
O=C1NC(=S)S/C1=C\c1ccc(-c2ccccc2F)o1 [Compound 7n, (Z)-5-((5-(2-fluorophenyl)furan-2-yl)methylene)-2-thioxothiazolidin-4-one] | + | 2.86 | + |  |  | 
O=C1NC(=S)S/C1=C\c1ccc(-c2cccc(F)c2)o1 [Compound 7q, (Z)-5-((5-(3-fluorophenyl)furan-2-yl)methylene)-2-thioxothiazolidin-4-one] | + | 3.44 | + |  |  | FC-ATM readthrough activity [2]: the best of this group
O=c1ccn(Cc2ccc(-c3ccccc3[N+](=O)[O-])o2)c(=O)[nH]1 [Compound 13a, 1-((5-(2-nitrophenyl)furan-2-yl)methyl)pyrimidine-2,4(1H,3H)-dione] |  |  | + | 4.94 | 10.67% | IR-induced ATMs1981 foci formation, readthrough activity [3]: statistically significant readthrough activity; concentration giving the highest level of readthrough activity [4]: 5 µM; dystrophin expression in mdx myotube cultures [4]: effective
O=c1ccn(Cc2ccc(-c3cccc(Cl)c3)o2)c(=O)[nH]1 [Compound 13i, 1-((5-(3-chlorophenyl)furan-2-yl)methyl)pyrimidine-2,4(1H,3H)-dione] |  |  | + | 5.07 | 11.33% | IR-induced ATMs1981 foci formation, readthrough activity [3]: statistically significant readthrough activity
N=C1NC(=O)/C(=C/c2cn(Cc3ccc(-c4ccccc4[N+](=O)[O-])o3)c(=O)[nH]c2=O)S1 [Compound 13j, (Z)-5-((2-imino-4-oxothiazolidin-5-ylidene)methyl)-1-((5-(2-nitrophenyl)furan-2-yl)methyl)pyrimidine-2,4(1H,3H)-dione] |  |  | + | 2.42 | 18% | IR-induced ATMs1981 foci formation, readthrough activity [3]: statistically significant readthrough activity; IRIF (ATMs1981) ([3]; summary of positive results): +
N=c1ccn(Cc2ccc(-c3ccccc3[N+](=O)[O-])o2)c(=O)[nH]1 [Compound 15a, 4-imino-1-((5-(2-nitrophenyl)furan-2-yl)methyl)-3,4-dihydropyrimidin-2(1H)-one] |  |  |  | negative | negative | 
N=c1[nH]c(=O)n(Cc2ccc(-c3ccccc3[N+](=O)[O-])o2)cc1F [Compound 15b] |  |  |  | negative | negative | 
